“And” between values parts separate entries of the source, which are not always exact repeats. Equal values may be shown once. Read-outs that look alike come from different tables or passages of the source.
Legend:
[1] = tested on: HRV-B14; format: cell-based, human rhinovirus
[2] = target: T1, human NET (Homo sapiens, UniProt P23975); format: cell-based; details: for NET, Mean (Figure 8B): Control = 100; for NET, Mean as % (Figure 8B): Control = 100%
T1 construct: expressed in transfected cells; host or cells: HEK293 (gift of Dr. Hoener, F. Hoffmann-La Roche)
T1 sequence (P23975 whole entry): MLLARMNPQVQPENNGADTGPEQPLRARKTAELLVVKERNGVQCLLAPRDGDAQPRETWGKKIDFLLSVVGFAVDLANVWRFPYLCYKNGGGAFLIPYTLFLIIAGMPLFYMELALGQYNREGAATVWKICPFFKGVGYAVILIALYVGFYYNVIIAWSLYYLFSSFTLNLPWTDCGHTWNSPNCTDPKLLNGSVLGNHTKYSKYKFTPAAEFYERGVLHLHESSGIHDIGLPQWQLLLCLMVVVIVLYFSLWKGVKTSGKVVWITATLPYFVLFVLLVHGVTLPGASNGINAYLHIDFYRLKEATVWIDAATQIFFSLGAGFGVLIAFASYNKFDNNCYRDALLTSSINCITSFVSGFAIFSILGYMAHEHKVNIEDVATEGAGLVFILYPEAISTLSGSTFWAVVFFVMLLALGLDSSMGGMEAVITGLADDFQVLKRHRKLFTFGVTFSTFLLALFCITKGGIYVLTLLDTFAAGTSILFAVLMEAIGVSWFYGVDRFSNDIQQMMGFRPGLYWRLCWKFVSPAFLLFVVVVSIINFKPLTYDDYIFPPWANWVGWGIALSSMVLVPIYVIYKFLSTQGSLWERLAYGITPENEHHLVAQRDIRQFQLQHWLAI

[3] = tested on: CV-B3; experiment: microbe, parasite or virus in culture; format: cell-based, coxsackievirus B3; details: Enterovirus B
[4] = tested on: EV-D68 (strain Fermon); format: cell-based, enterovirus D68
[5] = tested on: HRV-A2; experiment: microbe, parasite or virus in culture; format: cell-based, human rhinovirus
[6] = tested on: HRV-B14; experiment: microbe, parasite or virus in culture; format: cell-based, human rhinovirus; details: for EC50: Human rhinovirus sp.
[7] = tested on: CV-A24v; experiment: microbe, parasite or virus in culture; format: cell-based, coxsackievirus A24v; details: for EC50: Coxsackievirus
[8] = tested on: EV-A71; experiment: microbe, parasite or virus in culture; format: cell-based, enterovirus A71; details: for EC50: Enterovirus A

SMILES: COc1ccc(N(Cc2ccc(F)cc2)C(=O)c2cc[nH]c2)cc1 [Compound 12a, N-(4-Fluorobenzyl)-N-(4-methoxyphenyl)-1H-pyrrole-3-carboxamide]
- virus titer, TCID50/ml (Figure 2A) ([1]; compound concentration 0.3 µM): 10000000 TCID50/ml and 16982440 TCID50/ml
- virus titer, TCID50/ml (Figure 2A) ([1]; compound concentration 3 µM): 10000000 TCID50/ml and 16982440 TCID50/ml
- NET, Mean (Figure 8B) ([2]; 1µM): 121.035
- NET, Mean as % (Figure 8B) ([2]; 1µM): 121%
- NET, Mean (Figure 8B) ([2]; 100µM): 112.597
- NET, Mean as % (Figure 8B) ([2]; 100µM): 113%
- inhibition of NET function (in words) ([2]; HEK293 cells expressing human NET, 1 μM or 100 μM): neither 12a, 19b, 19d, nor the combined compound 12b inhibited
- EC50 ([3]; CVB3, HAP1): 20 ± 20 nM
- EC50 ([3]; CVB3, HAP1, read-out: EC50 Hap1 Average): 23 nM
- EC50 ([3]; CVB3, HAP1, read-out: Exp 1 EC50 Hap1): 40 nM
- EC50 ([3]; CVB3, HAP1, read-out: Exp 2 EC50 Hap1): 6 nM
- virus titer, TCID50/ml (Figure 2A) ([4]; compound concentration 0.01 µM): 6000000 TCID50/ml and 4677352 TCID50/ml
- virus titer, TCID50/ml (Figure 2A) ([4]; compound concentration 0.1 µM): 7000000 TCID50/ml and 4677352 TCID50/ml and 8000000 TCID50/ml
- virus titer, TCID50/ml (Figure 2A) ([4]; compound concentration 3 µM): 21379.6 TCID50/ml and 35481.3 TCID50/ml and 31622.8 TCID50/ml
- virus titer, TCID50/ml (Figure 2A) ([4]; compound concentration 100 µM): 31622.8 TCID50/ml and 21379.6 TCID50/ml and 35481.3 TCID50/ml
- Figure 7 dose-response raw data, HRV-A2 (triplicate values) ([5]; Concentration 0.0412 µM): 16.3585 and 16.9681 and 15.3831
- Figure 7 dose-response raw data, HRV-A2 (triplicate values) ([5]; Concentration 0.3704 µM): 15.1392 and 18.0654 and 15.3831
- Figure 7 dose-response raw data, HRV-A2 (triplicate values) ([5]; Concentration 1.1111 µM): 18.0654 and 16.8462 and 24.4056
- Figure 7 dose-response raw data, HRV-A2 (triplicate values) ([5]; Concentration 3.3333 µM): 11.1156 and 18.0654 and 21.7232
- Figure 7 dose-response raw data, HRV-A2 (triplicate values) ([5]; Concentration 11.1111 µM): 48.3946 and 57.9264 and 41.9398
- Figure 7 dose-response raw data, HRV-A2 (triplicate values) ([5]; Concentration 33.3333 µM): 99.5652 and 104.147 and 100.034
- Figure 7 dose-response raw data, HRV-A2 (triplicate values) ([5]; Concentration 100 µM): 89.5652 and 104.147 and 110.034
- EC50 ([5]; Human rhinovirus sp., HRVA2, HeLa R19, read-out: EC50 HRV-A2): 8.51 ± 0.22 µM
- Figure 7 dose-response raw data, HRV_B14 (triplicate values) ([6]; Concentration 0.0046 µM): 15.2266 and 14.5606
- Figure 7 dose-response raw data, HRV_B14 (triplicate values) ([6]; Concentration 0.0412 µM): 11.568 and 20.943 and 17.6535
- Figure 7 dose-response raw data, HRV_B14 (triplicate values) ([6]; Concentration 0.3704 µM): 18.8048 and 20.943 and 27.193
- Figure 7 dose-response raw data, HRV_B14 (triplicate values) ([6]; Concentration 1.1111 µM): 18.8048 and 20.943 and 27.193
- Figure 7 dose-response raw data, HRV_B14 (triplicate values) ([6]; Concentration 3.3333 µM): 94.6272 and 95.7785 and 85.4167
- Figure 7 dose-response raw data, HRV_B14 (triplicate values) ([6]; Concentration 11.1111 µM): 94.6272 and 95.7785 and 85.4167
- Figure 7 dose-response raw data, HRV_B14 (triplicate values) ([6]; Concentration 33.3333 µM): 98.3946 and 104.147 and 102.94
- Figure 7 dose-response raw data, HRV_B14 (triplicate values) ([6]; Concentration 100 µM): 89.5652 and 94.1472 and 100.034
- EC50 ([6]; HRVB14, HeLa R19, read-out: EC50 Exp1): 1660 nM
- EC50 ([6]; HRVB14, HeLa R19, read-out: EC50 HRV-B14): 1450 ± 210 nM
- Figure 7 dose-response raw data, CV-A24v (triplicate values) ([7]; Concentration 0.0046 µM): 10.497 and 11.7005 and 9.1598
- Figure 7 dose-response raw data, CV-A24v (triplicate values) ([7]; Concentration 0.0137 µM): 16.1819 and 13.1094 and 20.3605
- Figure 7 dose-response raw data, CV-A24v (triplicate values) ([7]; Concentration 0.0412 µM): 16.1819 and 13.1094 and 20.3605
- Figure 7 dose-response raw data, CV-A24v (triplicate values) ([7]; Concentration 0.1235 µM): 12.9865 and 12.4949 and 21.3437
- Figure 7 dose-response raw data, CV-A24v (triplicate values) ([7]; Concentration 0.3704 µM): 12.7407 and 14.2155 and 15.1987
- Figure 7 dose-response raw data, CV-A24v (triplicate values) ([7]; Concentration 1.1111 µM): 10.0369 and 10.7743 and 14.83
- Figure 7 dose-response raw data, CV-A24v (triplicate values) ([7]; Concentration 3.3333 µM): 9.791 and 10.5285 and 14.2155
- Figure 7 dose-response raw data, CV-A24v (triplicate values) ([7]; Concentration 11.1111 µM): 82.2926 and 86.3728 and 89.8506
- Figure 7 dose-response raw data, CV-A24v (triplicate values) ([7]; Concentration 33.3333 µM): 113.496 and 111 and 111.553
- Figure 7 dose-response raw data, CV-A24v (triplicate values) ([7]; Concentration 100 µM): 106.3 and 102.374 and 110.232
- EC50 ([7]; HeLa R19, read-out: EC50 CV-A24v strain 110386): 1940 ± 70 nM
- EC50 ([7]; HeLa R19, read-out: EC50 CV-A24v strain 110389): 3770 ± 320 nM
- EC50 ([7]; HeLa R19, read-out: EC50 CV-A24v strain 110390): 1910 ± 550 nM
- EC50 ([7]; HeLa R19, read-out: EC50 CV-A24v strain 110392): 2320 ± 230 nM
- Figure 7 dose-response raw data, EV-A71 (triplicate values) ([8]; Concentration 0.0046 µM): 12.3336 and 15.0352 and 19.2639
- Figure 7 dose-response raw data, EV-A71 (triplicate values) ([8]; Concentration 0.0137 µM): 12.3336 and 12.2161 and 11.2764
- Figure 7 dose-response raw data, EV-A71 (triplicate values) ([8]; Concentration 0.0412 µM): 12.0987 and 12.2161 and 13.2733
- Figure 7 dose-response raw data, EV-A71 (triplicate values) ([8]; Concentration 0.1235 µM): 11.9812 and 14.0955 and 13.6257
- Figure 7 dose-response raw data, EV-A71 (triplicate values) ([8]; Concentration 0.3704 µM): 12.5685 and 16.7972 and 13.6257
- Figure 7 dose-response raw data, EV-A71 (triplicate values) ([8]; Concentration 1.1111 µM): 12.3336 and 15.0352 and 19.2639
- Figure 7 dose-response raw data, EV-A71 (triplicate values) ([8]; Concentration 3.3333 µM): 12.3336 and 15.0352 and 19.2639
- Figure 7 dose-response raw data, EV-A71 (triplicate values) ([8]; Concentration 11.1111 µM): 119.819 and 116.746 and 110.126
- Figure 7 dose-response raw data, EV-A71 (triplicate values) ([8]; Concentration 33.3333 µM): 119.701 and 118.637 and 111.781
- Figure 7 dose-response raw data, EV-A71 (triplicate values) ([8]; Concentration 100 µM): 110.819 and 116.746 and 120.126
- EC50 ([8]; EVA71, HeLa R19, read-out: EC50 EV-A71): 4.03 ± 0.73 µM
- EC50 ([8]; EVA71, HeLa R19, read-out: EC50 EV-A71 strain BrCr): 4.48 ± 0.42 µM
- EC50 ([8]; EVA71, HeLa R19, read-out: EC50 EV-A71 strain TW/2728/04): 8.33 ± 0.65 µM

Source: article PMC7673538 (PLoS Biology, 2020)
